According to patent US20220008401A1, “COMPOSITIONS AND METHODS FOR TREATING PULMONARY DISEASE WITH MATRIX METALLOPROTEINASE INHIBITORS” (DARSHA LLC, priority 2019, published 2022):

Columns and labels:
LPS injured mice [1] = experiment: Lung injury (inflammation) score of H&E lung sections, LPS-injured mice, single inhaled dose; format: in vivo, C57BL/6J mice; conditions: LPS 1.5 mg/kg intranasal; 24 hours later single aerosolized dose 35 mg/kg; sacrifice one hour after; vs LPS alone p<0.001
Method: We next determined if inhaled Compound 1 attenuated specific features of acute inflammatory lung injury that were also observed in response to LPS. Again, 12-week-old male C57BL/6J mice were intranasally instilled with LPS (1.5 mg/kg of 1 mg/ml solution in sterile PBS). 24 hours later, these mice received a single dose of aerosolized MMP inhibitor (Compound 1, dissolved in PBS, 35 mg/kg) or PBS alone and a tail vein injection of FITC labeled albumin (FITC-albumin). One hour following nebulization, the mice were sacrificed. The left lung was fixed in formalin from each animal, paraffin embedded, sectioned and stained with H&E to examine histological features indicative of lung injury. These were achieved by visually scoring each slide based on a lung injury scoring system developed by the American Thoracic Society for animal models of inflammatory lung injury.

[2] = Lung and serum levels after nebulized Compound 1 in mice (mass spectroscopy); format: in vivo
Method: The compound was administered with a nebulizer of (FIG. 1A). With a 9 cc Medication Nebulizer, a dose of liquid medicine was prepared to a final concentration of 5 ml (3 mg/mL). Treatment was for approximately 20-30 minutes until all liquid was delivered. […] The nebulizer includes a Hospital grade Schuco air compressor 100, Blue top medication nebulizer 110, Plastic collar 120, White elbow hose connector 130, 7′ crush proof 02 tubing to air compressor 140, and MPC Aerosol Pie Cage 150. Technical Specifications of the nebulizing system were as follows:
The pie cage 150 has 12 slots to hold 12 mice.
10 mice were divided into three trial groups:
Low dose group: 3 mice at 2 mg dose (˜5 mg/kg) Medium dose group: 3 mice at 5 mg dose (˜12 mg/kg) High dose group: 4 mice at 10 mg dose (˜35 mg/kg)
The mice were nebulized within their respective dosing group for fifteen minutes (starting with the lowest dosing and moving up to the highest). One mouse was sacrificed per group at 1 hour, 3 hours and 5 hours after the drug delivery (2 mice were sacrificed for the 10 mg dose group).
[…] were collected during sacrifice: upper and lower left lung, right lung, and serum. The order of sample collection was: first blood, then left lung, then right lung. Before removing the right lung, but after removing the left lung, the right lung was lavaged. The lung samples were immediately placed into liquid nitrogen and the blood samples rested for 4 hours at room temperature. After the blood clotted it was centrifuged and the serum was taken into a new tube. Lung and serum samples were then analyzed by mass spectroscopy.

neutrophils = experiment: BrdU pulse-chase labeling of newly synthesized neutrophils in BALF of LPS-exposed mice; format: in vivo; conditions: LPS treated mice, n=3 (49.3±0.87% without treatment)
Method: To examine the hypothesis that reduced neutrophil counts in response to Compound 1 treatment resulted from decreased cell migration from the pulmonary circulation, pulse-chase labeling of newly synthesized neutrophils in LPS exposed animals was performed. LPS or saline was nasally instilled into mice which were then allowed to recover for 24 hours. Following this, an intraperitoneal injection (IP injections) of bromodeoxyuridine (BrdU) was administered and animals were allowed to rest for 2.5 hours. A 2.5-hour rest period was selected since it was previously determined that BrdU labeled neutrophils take about 3 hours to reach and infiltrate the lungs. At 2.5 hours animals received inhaled Compound 1 or PBS and were sacrificed at either 15- or 45 minutes post-treatment. Cytospin slides were generated from BALF and immunofluorescently stained for BrdU and MPO to identify neutrophils. Confocal images were taken of cytospins stained for BrdU and MPO (myeloperoxidase). The number of BrdU (+) and BrdU (−) neutrophils was quantified.

MMP 9 = MMP 9 (Mus musculus, UniProt P41245); experiment: MMP-9 Quantikine assay on lung homogenates of LPS-injured mice; format: in vivo; parameters: One-hour post-Compound 1 treatment lung homogenates were collected and analyzed; from tissue; host or cells: lung tissue homogenate of LPS-injured mice
Sequence of MMP 9 (P41245 108-730): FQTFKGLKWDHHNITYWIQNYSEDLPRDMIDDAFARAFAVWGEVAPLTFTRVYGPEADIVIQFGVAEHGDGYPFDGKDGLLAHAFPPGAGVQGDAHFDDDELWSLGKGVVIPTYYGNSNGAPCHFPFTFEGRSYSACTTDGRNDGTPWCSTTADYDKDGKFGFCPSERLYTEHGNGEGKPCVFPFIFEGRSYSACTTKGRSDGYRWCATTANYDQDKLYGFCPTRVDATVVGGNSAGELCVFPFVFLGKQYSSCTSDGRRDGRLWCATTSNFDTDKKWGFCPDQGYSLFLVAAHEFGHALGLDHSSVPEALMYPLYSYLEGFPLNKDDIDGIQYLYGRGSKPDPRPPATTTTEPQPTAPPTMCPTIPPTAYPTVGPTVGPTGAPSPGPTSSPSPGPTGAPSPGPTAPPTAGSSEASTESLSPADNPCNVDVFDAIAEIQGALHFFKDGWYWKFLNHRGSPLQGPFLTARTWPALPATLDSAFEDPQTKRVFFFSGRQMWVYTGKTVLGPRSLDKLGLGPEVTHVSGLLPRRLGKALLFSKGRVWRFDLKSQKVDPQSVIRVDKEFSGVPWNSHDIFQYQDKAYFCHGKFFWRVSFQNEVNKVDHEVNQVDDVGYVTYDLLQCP
Method: Inhibition of MMP-9 by inhaled Compound 1 treatment was assessed using a Quantikine Assay (R&D systems). Mice were injured by nasal instillation of LPS followed by treatment with inhaled PBS or Compound 1 (5 mg/mL). One-hour post-Compound 1 treatment lung homogenates were collected and analyzed.

LPS injured mice [3] = experiment: FITC-albumin exclusion assay (BALF:serum), LPS-injured mice, q6h x 4 doses; format: in vivo; conditions: LPS then inhaled Compound 1 every 6 hours for 4 doses; n=5 (LPS alone 1.04±0.13, PBS 0.44±0.11)
Method: Based on the data, the effect of a 6 hour dosing interval (q6h) of Compound 1 on injured mice lung was explored. FIG. 8B schematizes the experimental LPS injury/Compound 1 treatment workflow utilized unless otherwise indicated. Briefly, mice were nasally instilled with LPS (1.5 mg/kg) followed by initiation of Compound 1 treatment 24 hours later (i.e., after a 24 hours rest period). Four doses of Compound 1 (12 mg/kg) were administered via nebulizer every 6 hours to maintain a constant presence of compound in the lung. PBS was administered as a control. Mice were sacrificed 6 hours following the fourth dose. It was next determined if LPS induced edema was a result of increased permeability of the pulmonary vascular barrier. This was achieved using a FITC-albumin exclusion assay. Approximately 1 hour prior to sacrifice, mice received a tail vein injection of 3 mg of FITC labeled albumin. BALF and serum were collected and the amount of labeled albumin in each sample (BALF FITC Albumin:serum FITC Albumin) was determined using a fluorescent plate reader.

With “butanamide, N-hydroxy-2-[[(4-hydroxyphenyl)sulfonyl](3-pyridinylmethyl)amino]-3-methyl, hydrochloride, (2R) [Compound 1]” the “lung injury score (Inflammation Score)” value (LPS injured mice [1]) was “reduces the lung injury score”, the “Mouse Lung MMI 270” value ([2]; High Dose (10 mg, ~35 mg/kg, nebulized), 1 hour later, Left Lung Lower Lobe) was 1415.95 ng/g and the “Mouse Lung MMI 270” value ([2]; High Dose (10 mg, ~35 mg/kg, nebulized), 1 hour later, Right Lung Lower Lobe) was 598.24 ng/g. For the same substance, the “Mouse Serum MMI 270” value ([2]; High Dose (10 mg, ~35 mg/kg, nebulized), 1 hour later) was 87.99 ng/mL, the “Mouse Lung MMI 270” value ([2]; High Dose (10 mg, ~35 mg/kg, nebulized), 3 hour later, Left Lung Lower Lobe) was 119.51 ng/g and the “Mouse Lung MMI 270” value ([2]; High Dose (10 mg, ~35 mg/kg, nebulized), 3 hour later, Right Lung Lower Lobe) was 50.75 ng/g. The “Mouse Serum MMI 270” value ([2]; High Dose (10 mg, ~35 mg/kg, nebulized), 3 hour later) was 7.93 ng/mL, the “Mouse Lung MMI 270” value ([2]; High Dose (10 mg, ~35 mg/kg, nebulized), 5 hour later, Left Lung Lower Lobe) was 70.67 ng/g and the “Mouse Lung MMI 270” value ([2]; High Dose (10 mg, ~35 mg/kg, nebulized), 5 hour later, Right Lung Lower Lobe) was 23.36 ng/g. The “Mouse Serum MMI 270” value ([2]; High Dose (10 mg, ~35 mg/kg, nebulized), 5 hour later) was 3.79 ng/mL, the “Mouse Lung MMI 270” value ([2]; Low Dose (2 mg, ~5 mg/kg, nebulized), 1 hour later, Left Lung Lower Lobe) was 102.10 ng/g and the “Mouse Lung MMI 270” value ([2]; Low Dose (2 mg, ~5 mg/kg, nebulized), 1 hour later, Right Lung Lower Lobe) was 155.55 ng/g. For the same substance, the “Mouse Serum MMI 270” value ([2]; Low Dose (2 mg, ~5 mg/kg, nebulized), 1 hour later) was 2.97 ng/mL, the “Mouse Lung MMI 270” value ([2]; Low Dose (2 mg, ~5 mg/kg, nebulized), 3 hour later, Left Lung Lower Lobe) was 42.92 ng/g and the “Mouse Lung MMI 270” value ([2]; Low Dose (2 mg, ~5 mg/kg, nebulized), 3 hour later, Right Lung Lower Lobe) was 12.60 ng/g. For the same substance, the “Mouse Serum MMI 270” value ([2]; Low Dose (2 mg, ~5 mg/kg, nebulized), 3 hour later) was “<LLOQ”, the “Mouse Lung MMI 270” value ([2]; Low Dose (2 mg, ~5 mg/kg, nebulized), 5 hour later, Left Lung Lower Lobe) was 13.21 ng/g and the “Mouse Lung MMI 270” value ([2]; Low Dose (2 mg, ~5 mg/kg, nebulized), 5 hour later, Right Lung Lower Lobe) was “<LLOQ”. For the same substance, the “Mouse Serum MMI 270” value ([2]; Low Dose (2 mg, ~5 mg/kg, nebulized), 5 hour later) was “<LLOQ”, the “Mouse Lung MMI 270” value ([2]; Medium Dose (5 mg, ~12 mg/kg, nebulized), 1 hour later, Left Lung Lower Lobe) was 465.18 ng/g and the “Mouse Lung MMI 270” value ([2]; Medium Dose (5 mg, ~12 mg/kg, nebulized), 1 hour later, Right Lung Lower Lobe) was 127.68 ng/g. For the same substance, the “Mouse Serum MMI 270” value ([2]; Medium Dose (5 mg, ~12 mg/kg, nebulized), 1 hour later) was 20.06 ng/mL, the “Mouse Lung MMI 270” value ([2]; Medium Dose (5 mg, ~12 mg/kg, nebulized), 3 hour later, Left Lung Lower Lobe) was 49.60 ng/g and the “Mouse Lung MMI 270” value ([2]; Medium Dose (5 mg, ~12 mg/kg, nebulized), 3 hour later, Right Lung Lower Lobe) was 18.92 ng/g. The “Mouse Serum MMI 270” value ([2]; Medium Dose (5 mg, ~12 mg/kg, nebulized), 3 hour later) was 3.40 ng/mL, the “Mouse Lung MMI 270” value ([2]; Medium Dose (5 mg, ~12 mg/kg, nebulized), 5 hour later, Left Lung Lower Lobe) was 26.04 ng/g and the “Mouse Lung MMI 270” value ([2]; Medium Dose (5 mg, ~12 mg/kg, nebulized), 5 hour later, Right Lung Lower Lobe) was 13.55 ng/g. The “Mouse Serum MMI 270” value ([2]; Medium Dose (5 mg, ~12 mg/kg, nebulized), 5 hour later) was “<LLOQ”, the “percentage of BrdU (+) neutrophils” value (neutrophils; 15 minutes post inhaled treatment) was 16.7±3.6% and the “percentage of BrdU (+) neutrophils” value (neutrophils; 45 minutes post inhaled treatment) was 22.7±2.5%. The “MMP-9 activity (Quantikine)” value (MMP 9; LPS nasal instillation then inhaled Compound 1 (5 mg/mL), lung homogenates one hour post-treatment, n=6 (LPS 9260±1173, PBS 2388±370)) was 3614±442.1 RFU, the “MMP-9 levels in whole lung homogenate” value (MMP 9; LPS-injured, Compound 1 treated animals) was “decreased significantly” and the “FITC-albumin BALF:serum ratio” value (LPS injured mice [3]) was 0.49±0.13.
